Data taken from publication PMC12175533, “A cell-cell communication signal from Enterobacter cloacae interfering with the signaling systems and virulence in Shigella sonnei” (Applied and Environmental Microbiology, 2025).

Biological target: T1, YjgB (ECL_RS22935), alcohol dehydrogenase (Enterobacter cloacae, UniProt A0A0H3CR94)
T1 construct: gene ECL_04598; full-length ORF in pET-28a(+), His-tag fusion, E. coli BL21(DE3) with ZnCl2, HisTrap
Test: HPLC product formation assay
Assay type: biochemical
Settings: 200 uM substrate, 0.2 mM NADPH, 50 mM Tris-HCl, pH 8.0, 37 °C, 10 uM enzyme

T1 sequence (A0A0H3CR94 entry or part of it): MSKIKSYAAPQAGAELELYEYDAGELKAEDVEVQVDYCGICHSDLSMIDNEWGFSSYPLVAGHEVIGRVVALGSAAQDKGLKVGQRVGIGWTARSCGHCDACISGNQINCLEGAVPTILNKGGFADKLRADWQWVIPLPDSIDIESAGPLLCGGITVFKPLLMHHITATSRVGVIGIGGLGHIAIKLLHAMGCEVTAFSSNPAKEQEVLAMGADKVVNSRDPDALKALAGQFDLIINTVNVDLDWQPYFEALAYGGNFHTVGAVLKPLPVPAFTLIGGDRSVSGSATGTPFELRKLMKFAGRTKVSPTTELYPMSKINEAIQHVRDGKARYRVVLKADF

With `O=CCc1c[nH]c2ccccc12` [indole-3-acetaldehyde] the “HPLC product formation assay” value was “In vitro enzymatic assays demonstrated that YjgB directly catalyzed the conversion of indole-3-acetaldehyde to indole-3-ethanol”.
In the case of `OCCc1c[nH]c2ccccc12` [indole-3-ethanol], the “HPLC product formation assay” value is reported as “YjgB directly catalyzed the conversion of indole-3-acetaldehyde to indole-3-ethanol”.
